Values of other authors in patent publication US20110123642A1 (priority 2008, published 2011).

Compound | pKa | pKa^1 | pKa^2 | pKa^3 | pKa^4
O=C(O)CN(CCN(CC(=O)O)CC(=O)O)CC(=O)O [EDTA, reference compound] | 10.2 | – | – | – | –
O=C(O)CN(CC(=O)O)CC(=O)O [NTA, reference compound] | 9.7 | – | – | – | –
O=C([O-])CC[C@@H](C(=O)[O-])N(CC(=O)[O-])CC(=O)[O-].[Na+].[Na+].[Na+].[Na+] [GLDA, L-glutamic acid-N,N-diacetic acid, tetrasodium salt] | 9.4 | 9.4 | 5.0 | 3.5 | 2.6
